pIC50: −log10 of the molar value.
Key:
[1] = target: human GnRH receptor1 (GnRHR1) (Homo sapiens (Human), UniProt P30968); assay: Assay of GnRH antagonizing effect: inhibition of GnRH-stimulated intracellular calcium flux in HEK293 cells transiently expressing human GnRHR1; type: cell-based; settings: 5 nM GnRH, FLIPR calcium dye, read-out: IC50 (drug concentration at which 50% GnRH-stimulated intracellular calcium flux was inhibited)
Source text: 1) Cloning and Construction of the Vector Expressing Human GnRH Receptor1 (GnRHR1)
Using cDNA deprived from human pituitary (BECTON DICKINSON) as a template, the DNA fragment coding 45 to 1115 bp of human GnRHR1 (Accession No. L03380), which was reported by Kakar et al., was amplified by PCR method and inserted into the multi-cloning site of pcDNA3.1(+) (Invitrogen). The DNA sequence inserted was perfectly matched to the previously reported sequence.
2) Preparation of HEK293 (Human Embryonic Kidney) Cells Expressing Human GnRH Receptor1
The expression vector introduced human GnRHR1 gene was transfected into cultured HEK293 cells (medium : MEM, 10% FCS, containing antibiotics, non-essential amino acids and pyruvic acid) by means of lipofection with the use of Lipofectamine2000 (Invitrogen). After transfection, the cells were cultured for 2 days, and used for examinations.
3) Assay of GnRH Antagonizing Effect
Antagonizing effect of compounds for human GnRHR1 was evaluated by change of calcium levels in GnRH-stimulated cells. After removing the culture medium of HEK293 cells transiently expressing human GnRHR1, cells were washed with 200 μL piper well of the washing buffer (Hank's Balanced Salt Solutions, 20 mM N-2-hydroxyethylpiperazine-N′-2-ethanesulfonic acid, 1.3 mM calcium chloride, 0.5 mM magnesium chloride, 0.4 mM magnesium sulfate). One hundred μL of the Ca^2+sensitive dye solution (FLIPR Calcium Assay Kit (Molecular Devices)) was added to the well, and the cells were incubated for 1 hour at 37° C., 5% CO2. Then, intracellular calcium levels were determined under the following condition by using FLEX STATION (Molecular Devices). In the equipment, which was warmed to 37° C., 50 μL of test compound diluted with the measurement buffer (the washing buffer with 0.1% Albumin bovine serum) was added to the well. After 1 minute, 50 μL of 5 nM GnRH was added to the well. The drug concentration, at which 50% GnRH-stimulated intracellular calcium flux was inhibited (IC50 value), was calculated using logit plot (Table 108).

[2] = Assay for oral absorbability: plasma drug concentration in rats after intravenous (1 mg/kg) and oral (3 mg/kg) administration (Cmax, bioavailability, C360); type: in vivo; settings: SD rats; for bioavailability / Cmax: male, rat, plasma; for bioavailability: oral 3 mg/kg vs intravenous 1 mg/kg; for Cmax / C360 (plasma drug concentration at 360 minutes after administration): oral administration, 3 mg/kg; for Cmax: read-out: Cmax (maximum plasma drug concentration); for availability by oral administration (in words) / blood concentration 6 hours after oral administration, sustainability (in words): oral 3 mg/kg; for availability by oral administration (in words): compared with the compounds of Example 22 (sulfonamide) and Example 95 (amide); for blood concentration 6 hours after oral administration, sustainability (in words): 360 minutes, compared with Control compounds 1 and 2; for C360 (plasma drug concentration at 360 minutes after administration): class symbols
Description: Assay for Oral Absorbability
1) Preparation of the Samples for Measurement of the Drug Concentration After Intravenous Injection to the Tail Vein
As experimental animal, overnight fasted SD rats (Charles River, male, 7 weeks of age, 170-210 g) were used. One mg of a test compound was dissolved by adding 0.2 mL of N,N-dimethylacetoamide, 0.798 mL of saline and 0.002 mL of 2N NaOH, and then 1.0 mg/mL solution was prepared. The body weights of rats were measured, and the solution of the test compound was injected intravenously to the tail vein of unanesthetized rats at the dose of 1 mL/kg (1 mg/kg). The intravenous injection to the tail vein was performed with 26 G injection needle and 1 mL syringe. The sampling times for collection of blood were 2, 15, 60, 120, 240 and 360 minutes after the intravenous injection to the tail vein. The blood was centrifuged, and the plasma was used as the sample for measurement of the drug concentration in blood.
2) Preparation of the Samples for Measurement of the Drug Concentration After Oral Administration
As experimental animal, overnight fasted SD rats (Charles River, male, 7 weeks of age, 170-210 g) were used. Three mg of a test compound was dissolved by adding 0.2 mL of N,N-dimethylacetoamide, 9.794 mL of 0.5% aqueous sodium methylcellulose solution and 0.006 mL of 2N NaOH, and then 0.3 mg/mL solution was prepared. The body weights of rats were measured, and the solution of the test compound was administered orally at the dose of 10 mL/kg (3 mg/kg). The oral administration was performed with gastric tube for rat and 2.5 mL syringe. The sampling times for collection of blood were 15, 30, 60, 120, 240 and 360 minutes after the oral administration. The blood was centrifuged, and the plasma was used as the sample for measurement of the drug concentration in blood.
3) Measurement of the Drug Concentration
To 0.025 mL of the plasma obtained in 1) and 2) described above, 0.1 mL of an adequate internal standard material was added according to the usual method, and then deproteinization was performed by adding 0.875 mL of acetonitrile. After centrifugation, 0.005 mL of the supernatant was injected into LC-MS/MS. The drug concentration in plasma was measured by LC-MS/MS method under the conditions as follows. To 0.05 mL of the blank plasma were added the internal standard material and various test compounds adequately according to the usual method, similar operating described above was done, and then the standard curves were prepared.
Each area under the plasma drug concentration-time curve by intravenous injection to the tail vein and oral administration of the test compound was estimated with WinNonlin Professional by Pharsight Corporation from the plasma drug concentration at each time obtained from the above mentioned method, and then the bioavailability (%) was calculated based on the following formula.
Bioavailability (%)={[(Area under the plasma drug concentration-time curve by oral administration)/3]/(area under the plasma drug concentration -time curve by intravenous injection to the tail vein)}×100
In the oral administration, the maximum plasma drug concentration (Cmax), bioavailability and the plasma drug concentration at 360 minutes after administration (C360) are shown in Tables 110 to 112.

Chain of human GnRH receptor1 (GnRHR1) (P30968 whole entry): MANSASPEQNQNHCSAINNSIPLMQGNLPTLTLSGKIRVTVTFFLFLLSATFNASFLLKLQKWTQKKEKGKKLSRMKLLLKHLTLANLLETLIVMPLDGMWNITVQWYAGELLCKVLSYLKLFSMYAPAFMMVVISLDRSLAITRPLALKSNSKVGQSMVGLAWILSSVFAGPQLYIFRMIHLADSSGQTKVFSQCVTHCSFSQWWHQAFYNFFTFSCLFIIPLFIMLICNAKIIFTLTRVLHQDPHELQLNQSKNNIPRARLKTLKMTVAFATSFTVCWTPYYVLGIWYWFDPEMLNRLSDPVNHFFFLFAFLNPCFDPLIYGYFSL

Row | SMILES | pIC50 [1] | bioavailability [2] | Cmax [2] | availability by oral administration (in words) [2] | C360 (plasma drug concentration at 360 minutes after administration) [2] | blood concentration 6 hours after oral administration, sustainability (in words) [2]
1 | O=c1[nH]c2sccc2c(=O)n1-c1cc(S(=O)(=O)N2CCCc3ccccc32)ccc1Cl [Example 3] | 7.10 |  |  |  |  | 
2 | Cc1ccccc1COc1ccc(Cl)c(-n2c(=O)[nH]c3csc(C(=O)O)c3c2=O)c1 [Example 25] | 7.07 |  |  |  |  | 
3 | CN(C(=O)c1ccc(Cl)c(-n2c(=O)[nH]c3csc(C(=O)O)c3c2=O)c1)c1ccccc1 [Example 95] | 7.72 |  | 0.322 µg/mL |  |  | 
4 | COc1ccc(F)cc1C(C)(C)Sc1ccc(F)c(-n2c(=O)[nH]c3csc(C(=O)O)c3c2=O)c1 [Example 191] | 7.77 |  | 13.5 µg/mL | more excellent availability |  | 
5 | CC(C)(c1ccccc1)S(=O)(=O)c1ccc(F)c(-n2c(=O)[nH]c3csc(C(=O)O)c3c2=O)c1 [Example 202, 5-Carboxy-3-[2-fluoro-5-(1-methyl-1-phenylethylsulfonyl) -phenyl]thieno[3,4-d]pyrimidine-2,4(1H,3H)-dione] | 7.70 |  | 1.31 µg/mL | more excellent availability | B (B: 300 ng/mL to 1000 ng/mL) | maintain their blood concentrations 6 hours after the oral administrations
6 | COc1cc(F)c(-n2c(=O)[nH]c3csc(C(=O)O)c3c2=O)cc1OCc1c(OC)ccc(F)c1F [Example 233, 5-Carboxy-3-[2-fluoro-5-(2,3-difluoro-6-methoxybenzyloxy) -4-methoxyphenyl]thieno[3,4-d]pyrimidine-2,4(1H,3H)-dione] | 7.82 |  | 25 µg/mL | more excellent availability | A (A: >1000 ng/mL) | maintain their blood concentrations 6 hours after the oral administrations
7 | CC(C)(Oc1ccc(Cl)c(-n2c(=O)[nH]c3csc(C(=O)O)c3c2=O)c1)c1ccccc1 [Example 271] |  |  | 17.6 µg/mL | more excellent availability | A (A: >1000 ng/mL) | maintain their blood concentrations 6 hours after the oral administrations
8 | COc1cc(F)c(-n2c(=O)[nH]c3csc(C(=O)O)c3c2=O)cc1COc1c(OC)ccc(F)c1F [Example 414] | 7.38 |  | 25.6 µg/mL | more excellent availability | A (A: >1000 ng/mL) | maintain their blood concentrations 6 hours after the oral administrations

More lines, in order of rising pIC50 [1], values ahead:

Row | pIC50 [1] | bioavailability [2] | Cmax [2] | availability by oral administration (in words) [2] | C360 (plasma drug concentration at 360 minutes after administration) [2] | SMILES | blood concentration 6 hours after oral administration, sustainability (in words) [2]
9 | 6.57 |  |  |  |  | CNC(=O)c1scc2[nH]c(=O)n(-c3cc(S(=O)(=O)N4CCCc5ccccc54)ccc3Cl)c(=O)c12 [Example 31, 5-Methylcarbamoyl-3-[2-chloro-5-(3,4-dihydroquinolin-1(2H) -ylsulfonyl)phenyl]thieno[3,4-d]pyrimidine-2,4(1H,3H)-dione] | 
10 | 6.70 |  |  |  |  | O=c1[nH]c2ccsc2c(=O)n1-c1cc(S(=O)(=O)N2CCCc3ccccc32)ccc1Cl [Example 2] | 
11 | 7.00 |  |  |  |  | Cc1cccc(N(C)S(=O)(=O)c2ccc(Cl)c(-n3c(=O)[nH]c4sccc4c3=O)c2)c1 [Example 17] | 
12 | 7.54 | 65% | 14.5 µg/mL | more excellent availability |  | COc1cccc(F)c1C(C)Oc1ccc(F)c(-n2c(=O)[nH]c3csc(C(=O)O)c3c2=O)c1 (stereo not drawn) [Example 48, 5-Carboxy-3-{2-fluoro-5-[1-(2-fluoro-6-methoxyphenyl) -ethoxy]phenyl}[3,4-d]pyrimidine-2,4(1H,3H)-dione] | 
13 | 7.54 |  | 15.2 µg/mL | more excellent availability | B (B: 300 ng/mL to 1000 ng/mL) | COc1cc(F)c(-n2c(=O)[nH]c3csc(C(=O)O)c3c2=O)cc1CN(C)c1c(F)cccc1F [Example 420] | maintain their blood concentrations 6 hours after the oral administrations
14 | 7.82 |  | 14.1 µg/mL | more excellent availability | A (A: >1000 ng/mL) | COCCOc1ccc(F)c(F)c1COc1ccc(F)c(-n2c(=O)[nH]c3csc(C(=O)O)c3c2=O)c1 [Example 367] | maintain their blood concentrations 6 hours after the oral administrations
15 | 8.00 |  | 17.9 µg/mL | more excellent availability | A (A: >1000 ng/mL) | CC(C)(C(=O)c1ccc(Cl)c(-n2c(=O)[nH]c3csc(C(=O)O)c3c2=O)c1)c1ccccc1 [Example 146] | maintain their blood concentrations 6 hours after the oral administrations
16 | 8.70 | 11% | 0.342 µg/mL |  |  | O=C(O)c1scc2[nH]c(=O)n(-c3cc(S(=O)(=O)N4CCCc5ccccc54)ccc3Cl)c(=O)c12 [Example 22, 5-Carboxy-3-[2-chloro-5-(3,4-dihydroquinolin-1(2H)-yl-sulfonyl)phenyl]thieno[3,4-d]pyrimidine-2,4(1H,3H)-dione] | 
